Reference: ChEMBL document CHEMBL3091305, “Metabolism-guided discovery of a potent and orally bioavailable urea-based calcimimetic for the treatment of secondary hyperparathyroidism” (Bioorg Med Chem Lett, 2013)

Legend:
in vivo [1] = conditions: Sprague-Dawley, rat, iv, 0.5 mg/kg
in vivo [2] = conditions: Sprague-Dawley, rat, po, 2 mg/kg

SMILES | clearance (in vivo [1]) | bioavailability (in vivo [2])
CS(=O)(=O)Nc1ccc(-c2csc(NC(=O)N(CCC(c3ccccc3)c3ccccc3)CCN3CCOCC3)n2)cc1 | 63.3 mL/min/kg | –
NS(=O)(=O)c1ccc(-c2nsc(NC(=O)N(CCC(c3ccc(F)cc3)c3ccc(F)cc3)CCN3CCOCC3)n2)cc1 | 26.7 mL/min/kg | 39%
